We go through 1 molecule from US9655877B2, “Therapeutic methods for treating inflammation and immune system disorders” (priority 2009, dated 2017).

The test system of one assay is Neuro-2a cells. Briefly: Conditioned culture medium transfer model (LPS-treated BV-2 supernatant on Neuro-2a), MTT assay. It is filed as cell-based, murine. Particulars: supernatant of BV-2 cells treated with 100 ng/ml LPS and 50 μg/ml compound 18 h, on Neuro-2a 48 h; LPS only more than 40%. The protocol:
BV-2 cells (3×10^5 cells/ml) were first treated with 100 ng/ml LPS for 18 h, in the presence of either 0.05% DMSO or 50 μg/ml senkyunolide A or Z-ligustilide. After centrifugation, the supernatants from BV-2 cells were transferred to Neuro-2a cells ([…]) for 48 h. Viability of Neuro-2a cells was measured using MTT assays. Results are shown as mean SD from three independent experiments. *p<0.05 compared with DMSO+LPS.
BV-2 cells were seeded at 3×10^5 cells/ml in 12-well culture plates (1 ml in each well). They were co-treated with or without 100 ng/ml LPS, in the presence of 0.05% DMSO, 50 μg/ml senkyunolide A, or 50 μg/ml Z-ligustilide, for 18 h. The supernatants were then collected and centrifuged at 13,200 rpm for 3 min. The resulting supernatants were then transferred to Neuro-2a cells (1×10^5 cells/ml in 24-well culture plates), which were incubated for another 48 h. Cell viability of Neuro-2a cells was measured by MTT assay.
Briefly, to investigate the physiological significance of Sen A and Z-Lig, a conditioned culture medium transfer model, commonly used for studying neuronal cell death induced by microglial activation, was adopted. After BV-2 cells were challenged with LPS, the supernatants were collected and centrifuged. The conditioned culture media were then transferred to Neuro-2a cell cultures.

For assay [1], the system named is TNF-α production in human blood macrophages. Briefly: LPS-induced TNF-α production in human blood macrophages (PBMac), ELISA. It is filed as cell-based. Particulars: 25 or 50 μg/ml for 24 hours, then 1 ng/ml LPS for 24 hours. The protocol:
To measure the TNF-α level in cell culture supernatants, BV-2 cells were seeded at 1×10^5 cells/ml in the volume of 0.5 ml in 24-well culture plates. They were co-treated with or without 100 ng/ml LPS in the absence or presence of indicated concentrations of bioactive compounds of LCX for 18 h. In addition, PBMac cells were seeded at 1×10^6 cells/ml in the volume of 0.5 ml in 24-well plates. After incubation, the supernatants were collected and TNF-α levels were determined by ELISA according to the manufacturer's instructions (R&D Systems). […] To study the effect of Sen A and Z-Lig at various concentrations on TNF-α production, 1×10^6 cells/ml (FIG. 6) PBMac cells are seeded in 24-well plates (0.5 ml in each well). Cells are treated with 25 μg/ml or 50 μg/ml Sen A, Z-Lig, or DMSO for 24 hours prior to the addition of 1 ng/ml LPS, and further incubated for another 24 hours. The culture supernatants are collected and the level of secreted TNF-α is measured by ELISA according to the manufacturer's instructions (R&D Systems, Minneapolis, Minn.).
In general terms: An ELISA detects its analyte on a solid surface through an enzyme-linked reagent.

The test system of assay [2] is MAP kinases (p38, JNK, ERK 1/2). The assay can be described thus: Phosphorylation of MAPKs in LPS-stimulated BV-2 cells, Western blot. Format: cell-based, murine. Particulars: 50 μg/ml pretreatment 1 h, 100 ng/ml LPS 30 min. The protocol:
BV-2 cells (2×10^5 cells/ml) were pretreated with either 0.05% DMSO or 50 μg/ml senkyunolide A for 1 h, followed by treatment with 100 ng/ml LPS for another 30 min. (A) Cytoplasmic proteins were extracted and analyzed by Western Blot using antibodies specific for phospho-p38, phospho-JNK, phospho-ERK 1/2 and actin. (B) Nuclear proteins were extracted and analyzed by Western Blot against NF-kB p65 and lamin B antibodies. 10^5 cells/ml BV-2 cells were first pretreated with senkyunolide A for 1 h. After induction by 100 ng/ml LPS for 30 min, the culture medium was discarded. Cytoplasmic proteins and nuclear proteins were extracted separately by buffer A and buffer C as described in our previous report^28. The cell lysates were separated by 10% SDS-polyacrylamide gel electrophoresis and transferred to a nitrocellulose membrane (Schleicher & Schuell, Germany). The cell lysates were incubated with specific antibodies (phospho-MAP kinases, Actin, NF-kB p65 and Lamin B) overnight. After three washes, the membranes were incubated with the corresponding secondary antibodies. The bands were detected using the Enhanced Chemiluminescence System (GE Healthcare, Piscataway, N.J., USA) according to the manufacturer's instructions. […] Briefly, the effect of Sen A on mitogen-activated protein kinases (MAPKs) in the cell signaling cascade was investigated. […]
Background: In western blotting, separated proteins are transferred to a membrane and probed.

The test system of assay [3] is TNF-α protein production in BV-2 cells. Briefly: LPS-induced TNF-α protein production in BV-2 cells, ELISA. Particulars: 100 ng/ml LPS, 18 hours. Format: cell-based, murine. The protocol: To measure the TNF-α level in cell culture supernatants, BV-2 cells were seeded at 1×10^5 cells/ml in the volume of 0.5 ml in 24-well culture plates. They were co-treated with or without 100 ng/ml LPS in the absence or presence of indicated concentrations of bioactive compounds of LCX for 18 h. In addition, PBMac cells were seeded at 1×10^6 cells/ml in the volume of 0.5 ml in 24-well plates. After incubation, the supernatants were collected and TNF-α levels were determined by ELISA according to the manufacturer's instructions (R&D Systems).
The role of senkyunolide A (Sen A) and Z-ligustilide (Z-Lig) in suppressing TNF-α production is further evaluated in this Example. Briefly, 5×10^4 cells/ml BV-2 cells are seeded in 24-well plates (0.5 ml in each well). Cells are treated with 0.05% DMSO; 0.05% DMSO and 100 ng/ml LPS; 50 μg/ml Sen A/Z-Lig; or 100 ng/ml LPS and Sen A/Z-Lig at a concentration of 1 μg/ml, 5 μg/ml, 10 μg/ml, 25 μg/ml, and 50 μg/ml for 18 hours, respectively. The culture supernatant is collected and the level of secreted TNF-α is measured by ELISA.

With `CCCC[C@H]1OC(=O)C2=C1CCC=C2` [senkyunolide A], the “cell death of Neuro-2a cells” value in the assay with Neuro-2a cells was “less than 15%”. Also, the “effect on endotoxin-induced TNF-α production” value in assay [1] is “suppress endotoxin-induced TNF-α production in a dose-dependent manner”. Moreover, the “effect on levels of phosphorylation of MAPKs (p38, JNK, ERK 1/2)” value in assay [2] is “did not exert any effect”. Further, the results for the “reduction in TNF-α production” value in assay [3] (10 μg/ml), in assay [3] (25 μg/ml) and in assay [3] (50 μg/ml) were “approximately 2 fold”, about 4 fold and about 10 fold, respectively.
